Measurements published in PubChem BioAssay (NCI).
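Values below derive from 48-hour exposures of cells grown in 96-well plates, with endpoints linearly interpolated between the two concentrations bracketing the appropriate inhibition level. GI50 is the concentration that inhibits growth by half. TGI denotes the concentration required for complete inhibition of growth.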

What was measured:
Experiment in all cases: NCI-60 cell line screen, 48 h
SK-MEL-2 melanoma = test system: SK-MEL-2 melanoma
RXF 393 renal = test system: RXF 393 renal
MCF7 breast = test system: MCF7 breast
RPMI-8226 leukemia = test system: RPMI-8226 leukemia
OVCAR-4 ovarian = test system: OVCAR-4 ovarian
HT29 colon = test system: HT29 colon
EKVX NSCLC = test system: EKVX NSCLC
NCI-H23 lung = test system: NCI-H23 lung
UO-31 renal = test system: UO-31 renal
SK-MEL-5 melanoma = test system: SK-MEL-5 melanoma

For `CCCCOc1nc2ccccc2cc1C1CNC(=O)c2ccccc2N1` (stereo not drawn), the GI50 (SK-MEL-2 melanoma) was 4.06 µM, the TGI (SK-MEL-2 melanoma) was 29.6 µM and the GI50 (RXF 393 renal) was 2.25 µM. For the same compound, the TGI (RXF 393 renal) was 10.2 µM, the GI50 (MCF7 breast) was 2.23 µM and the TGI (MCF7 breast) was 15.4 µM. The GI50 (RPMI-8226 leukemia) was 2.81 µM, the TGI (RPMI-8226 leukemia) was 16 µM and the GI50 (OVCAR-4 ovarian) was 4.77 µM. The TGI (OVCAR-4 ovarian) was 24.8 µM, the GI50 (HT29 colon) was 3.3 µM and the TGI (HT29 colon) was 10.6 µM. It also gave a GI50 (EKVX NSCLC) of 5.15 µM, a TGI (EKVX NSCLC) of 63 µM and a GI50 (NCI-H23 lung) of 5.19 µM. It also gave a TGI (NCI-H23 lung) of 35.1 µM, a GI50 (UO-31 renal) of 2.83 µM and a TGI (UO-31 renal) of 20 µM. For the same compound, the GI50 (SK-MEL-5 melanoma) was 2.79 µM and the TGI (SK-MEL-5 melanoma) was 18.4 µM.
`CCc1cc(Nc2nccc(-c3c(-c4ccc(OC)c(C(=O)Nc5c(F)cccc5F)c4)nc4ccccn34)n2)c(OC)cc1N1CCC(N2CCN(S(C)(=O)=O)CC2)CC1` was tested, and the GI50 (SK-MEL-2 melanoma) was greater than 51.8 µM, the TGI (SK-MEL-2 melanoma) was greater than 88.4 µM and the GI50 (RXF 393 renal) was greater than 47 µM. It also gave a TGI (RXF 393 renal) greater than 100 µM, a TGI (MCF7 breast) greater than 100 µM and a GI50 (RPMI-8226 leukemia) greater than 100 µM. The TGI (RPMI-8226 leukemia) was greater than 100 µM, the GI50 (OVCAR-4 ovarian) was greater than 100 µM and the TGI (OVCAR-4 ovarian) was greater than 100 µM. It also gave a TGI (HT29 colon) greater than 100 µM, a GI50 (EKVX NSCLC) greater than 100 µM and a TGI (EKVX NSCLC) greater than 100 µM. It also gave a GI50 (NCI-H23 lung) greater than 100 µM, a TGI (NCI-H23 lung) greater than 100 µM and a GI50 (UO-31 renal) greater than 100 µM. The TGI (UO-31 renal) was greater than 100 µM, the GI50 (SK-MEL-5 melanoma) was greater than 64.8 µM and the TGI (SK-MEL-5 melanoma) was greater than 100 µM.
In the case of `C=C1C(=O)O[C@H]2[C@H]1CC/C(COC(=O)c1ccc(Br)cc1)=C\CC[C@@]1(C)O[C@@H]21`, the GI50 (SK-MEL-2 melanoma) was 1.64 µM, the TGI (SK-MEL-2 melanoma) was 3.06 µM and the GI50 (RXF 393 renal) was 1.46 µM. The TGI (RXF 393 renal) was 2.84 µM, the GI50 (MCF7 breast) was 0.645 µM and the TGI (MCF7 breast) was 2.97 µM. The GI50 (RPMI-8226 leukemia) was 0.543 µM, the TGI (RPMI-8226 leukemia) was 3.85 µM and the GI50 (OVCAR-4 ovarian) was 1.57 µM. For the same compound, the TGI (OVCAR-4 ovarian) was 3.68 µM, the GI50 (HT29 colon) was 1.13 µM and the TGI (HT29 colon) was 3.43 µM. The GI50 (EKVX NSCLC) was 1.76 µM, the TGI (EKVX NSCLC) was 4.05 µM and the GI50 (NCI-H23 lung) was 1.6 µM. The TGI (NCI-H23 lung) was 3.41 µM, the GI50 (UO-31 renal) was 1.29 µM and the TGI (UO-31 renal) was 2.56 µM. For the same compound, the GI50 (SK-MEL-5 melanoma) was 1.81 µM and the TGI (SK-MEL-5 melanoma) was 3.28 µM.
Work on `O=C(Nc1ccc(I)cc1F)c1cc(F)ccc1O` yielded a GI50 (SK-MEL-2 melanoma) of 0.367 µM, a TGI (SK-MEL-2 melanoma) of 1.92 µM and a GI50 (RXF 393 renal) of 0.732 µM. The TGI (RXF 393 renal) was 4.05 µM, the GI50 (MCF7 breast) was 1.48 µM and the TGI (MCF7 breast) was greater than 25.3 µM. It also gave a GI50 (RPMI-8226 leukemia) of 0.253 µM, a TGI (RPMI-8226 leukemia) of 0.888 µM and a GI50 (OVCAR-4 ovarian) of 0.396 µM. The TGI (OVCAR-4 ovarian) was 17.2 µM, the GI50 (HT29 colon) was 3.44 µM and the TGI (HT29 colon) was greater than 100 µM. For the same compound, the GI50 (EKVX NSCLC) was 1.4 µM, the TGI (EKVX NSCLC) was 9.01 µM and the GI50 (NCI-H23 lung) was 0.379 µM. The TGI (NCI-H23 lung) was 4.04 µM, the GI50 (UO-31 renal) was 0.236 µM and the TGI (UO-31 renal) was 1.34 µM. The GI50 (SK-MEL-5 melanoma) was 0.229 µM and the TGI (SK-MEL-5 melanoma) was 0.556 µM.
In the case of `CCOC(=O)CCC(NC(=O)c1ccc(Nc2nc3cc(N)cc(N)c3nc2-c2ccccc2)cc1)C(=O)OCC` (stereo not drawn), the GI50 (SK-MEL-2 melanoma) was 16.5 µM, the TGI (SK-MEL-2 melanoma) was greater than 86 µM and the GI50 (RXF 393 renal) was 43.4 µM. It also gave a TGI (RXF 393 renal) greater than 92.6 µM, a GI50 (MCF7 breast) of 34.8 µM and a TGI (MCF7 breast) greater than 100 µM. It also gave a GI50 (RPMI-8226 leukemia) of 6.43 µM, a TGI (RPMI-8226 leukemia) greater than 59.3 µM and a GI50 (OVCAR-4 ovarian) of 44.5 µM. It also gave a TGI (OVCAR-4 ovarian) greater than 100 µM, a GI50 (HT29 colon) of 83.6 µM and a TGI (HT29 colon) greater than 100 µM. For the same compound, the GI50 (EKVX NSCLC) was greater than 53.8 µM, the TGI (EKVX NSCLC) was greater than 100 µM and the GI50 (NCI-H23 lung) was 30.8 µM. It also gave a TGI (NCI-H23 lung) greater than 74.5 µM, a GI50 (UO-31 renal) greater than 46.6 µM and a TGI (UO-31 renal) greater than 87.1 µM. For the same compound, the GI50 (SK-MEL-5 melanoma) was 12.6 µM and the TGI (SK-MEL-5 melanoma) was 44.6 µM.
`C/C(=C\COc1ccc2ccc(=O)oc2c1)CCC(=O)C(C)(C)O` showed a TGI (SK-MEL-2 melanoma) greater than 100 µM, a TGI (RXF 393 renal) of 39.9 µM and a TGI (MCF7 breast) of 40.6 µM. It also gave a TGI (RPMI-8226 leukemia) of 50 µM, a TGI (OVCAR-4 ovarian) greater than 100 µM and a TGI (HT29 colon) of 52.7 µM. The TGI (EKVX NSCLC) was greater than 100 µM, the TGI (NCI-H23 lung) was greater than 100 µM and the TGI (UO-31 renal) was 91.9 µM. The TGI (SK-MEL-5 melanoma) was 30.2 µM.
`COc1cc2cc(Oc3ccc(NC(=O)Nc4cc(C(F)(F)F)cc(C(F)(F)F)c4)cc3)c(C)nc2cc1OCCN1CCCCC1` gave a GI50 (SK-MEL-2 melanoma) of 1.85 µM, a TGI (SK-MEL-2 melanoma) of 3.57 µM and a GI50 (RXF 393 renal) of 1.59 µM. The TGI (RXF 393 renal) was 3.2 µM, the GI50 (MCF7 breast) was 1.68 µM and the TGI (MCF7 breast) was 3.43 µM. For the same compound, the GI50 (RPMI-8226 leukemia) was 2.08 µM, the TGI (RPMI-8226 leukemia) was 4.72 µM and the GI50 (OVCAR-4 ovarian) was 1.89 µM. The TGI (OVCAR-4 ovarian) was 3.61 µM, the GI50 (HT29 colon) was 1.83 µM and the TGI (HT29 colon) was 3.37 µM. The GI50 (EKVX NSCLC) was 1.81 µM, the TGI (EKVX NSCLC) was 3.44 µM and the GI50 (NCI-H23 lung) was 1.75 µM. For the same compound, the TGI (NCI-H23 lung) was 3.32 µM, the GI50 (UO-31 renal) was 1.28 µM and the TGI (UO-31 renal) was 2.55 µM. It also gave a GI50 (SK-MEL-5 melanoma) of 1.69 µM and a TGI (SK-MEL-5 melanoma) of 3.08 µM.
`S=C1NC2=C(CCOc3c2ccc2ccccc32)C(c2ccc(Cl)cc2)N1` (stereo not drawn) gave a GI50 (SK-MEL-2 melanoma) of 80.9 µM, a TGI (SK-MEL-2 melanoma) greater than 100 µM and a GI50 (RXF 393 renal) of 39 µM. It also gave a TGI (RXF 393 renal) greater than 100 µM, a GI50 (MCF7 breast) of 16.2 µM and a TGI (MCF7 breast) greater than 100 µM. For the same compound, the GI50 (RPMI-8226 leukemia) was 25 µM, the TGI (RPMI-8226 leukemia) was greater than 100 µM and the GI50 (OVCAR-4 ovarian) was greater than 100 µM. It also gave a TGI (OVCAR-4 ovarian) greater than 100 µM, a GI50 (HT29 colon) of 33.5 µM and a TGI (HT29 colon) greater than 100 µM. It also gave a GI50 (EKVX NSCLC) of 20.2 µM, a TGI (EKVX NSCLC) of 86 µM and a GI50 (NCI-H23 lung) of 18.2 µM. It also gave a TGI (NCI-H23 lung) of 92 µM, a GI50 (UO-31 renal) of 46.2 µM and a TGI (UO-31 renal) greater than 100 µM. For the same compound, the GI50 (SK-MEL-5 melanoma) was 20 µM and the TGI (SK-MEL-5 melanoma) was 44.9 µM.
